Test results reported in paper PMC11954892, “β-Carotene alleviates substrate inhibition caused by asymmetric cooperativity” (Nature Communications, 2025).

Key:
NbUGT72AY1 [1] = biological target: T1, NbUGT72AY1 (Nicotiana benthamiana, UniProt A0A8K1ZRH3); assay: X-ray co-crystal structure (ternary complex with scopoletin); type: binding
T1 sequence (A0A8K1ZRH3 1-477): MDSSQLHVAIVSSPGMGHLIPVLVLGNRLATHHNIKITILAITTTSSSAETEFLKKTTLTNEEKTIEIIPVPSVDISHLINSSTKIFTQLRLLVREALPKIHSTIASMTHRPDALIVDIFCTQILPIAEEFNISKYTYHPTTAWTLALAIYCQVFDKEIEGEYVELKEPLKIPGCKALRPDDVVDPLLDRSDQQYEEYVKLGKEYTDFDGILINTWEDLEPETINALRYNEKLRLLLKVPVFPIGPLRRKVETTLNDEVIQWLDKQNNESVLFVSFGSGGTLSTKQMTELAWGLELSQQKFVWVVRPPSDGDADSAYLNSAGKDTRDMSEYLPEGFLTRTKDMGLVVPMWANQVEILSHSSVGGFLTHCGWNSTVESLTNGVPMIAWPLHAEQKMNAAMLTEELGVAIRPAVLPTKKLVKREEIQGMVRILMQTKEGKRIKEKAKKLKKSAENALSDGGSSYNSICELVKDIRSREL

NbUGT72AY1 [2] = biological target: T1, NbUGT72AY1; assay: UDP-Glo glucosyltransferase assay, purified enzyme (reactivation of substrate-inhibited enzyme); type: biochemical; set-up: N-terminal GST tag
NbUGT72AY1 [3] = biological target: T1, NbUGT72AY1; assay: HDX-MS; inhibition of UDPG glucohydrolase and relief of substrate inhibition (UDP-Glo, purified enzyme); type: binding
NbUGT72AY1 [4] = biological target: T1, NbUGT72AY1; assay: ITC ([…] stoichiometry); co-crystal structures; HDX-MS; enzyme kinetics; type: binding
NbUGT72AY1 [5] = biological target: T1, NbUGT72AY1; assay: HDX-MS; CD; inhibition of UDPG glucohydrolase and relief of substrate inhibition (UDP-Glo, purified enzyme); type: binding

## O=c1ccn([C@@H]2O[C@H](COP(=O)(O)OP(=O)(O)O[C@H]3O[C@H](CO)[C@@H](O)[C@H](O)[C@H]3F)[C@@H](O)[C@H]2O)c(=O)[nH]1 [UDP2FG]
NbUGT72AY1 [1]
  X-ray co-crystal structure (ternary complex with scopoletin): ternary complex V (NbUGT72AY1•scopoletin/UDP2FG: 9J9K) most of the protein residues are visible in the electron density maps

## CC(C)=CCC/C(C)=C/C=C/C(C)=C/C=C/C(C)=C/C=C/C=C(C)/C=C/C=C(C)/C=C/C=C(\C)CCC=C(C)C [lycopene]
NbUGT72AY1 [2]
  UDP-Glo glucosyltransferase assay, purified enzyme (reactivation of substrate-in): Even acyclic lycopene shows a concentration-dependent reactivation of the substrate-inhibited enzyme.

## CC1=C(/C=C/C(C)=C/C=C/C(C)=C/CO)C(C)(C)CCC1 [retinol]
NbUGT72AY1 [3]
  HDX-MS; inhibition of UDPG glucohydrolase and relief of substrate inhibition (UD): concentration-dependent reactivation of the substrate-inhibited enzyme by β-carotene, β-apo-8’-carotenal, and retinol was detected

## COc1cc2ccc(=O)oc2cc1O [scopoletin]
NbUGT72AY1 [4]
  Kd: 4.5 ± 1.1 µM

## CC1=C(/C=C/C(C)=C/C=C/C(C)=C/C=C/C=C(C)/C=C/C=C(\C)C=O)C(C)(C)CCC1 [β-apo-8’-carotenal]
NbUGT72AY1 [3]
  HDX-MS; inhibition of UDPG glucohydrolase and relief of substrate inhibition (UD): concentration-dependent reactivation of the substrate-inhibited enzyme by β-carotene, β-apo-8’-carotenal, and retinol was detected

## CC1=C(/C=C/C(C)=C/C=C/C(C)=C/C=C/C=C(C)/C=C/C=C(C)/C=C/C2=C(C)CCCC2(C)C)C(C)(C)CCC1 [β-carotene]
NbUGT72AY1 [5]
  HDX-MS; CD; inhibition of UDPG glucohydrolase and relief of substrate inhibition: with β-carotene being the most potent in suppressing glucohydrolase activity in accordance with its strong inhibition of SI
